Data: patent US20150174202A1, “Methods and Compositions for Modulating Beta Cell Proliferation” (The Board of Trustees of the Leland Stanford Junior …, priority 2011, published 2015)

Tests used:
[1] = tested on: EZH2; assay: EZH2/EZH1 mRNA in cultured human islets (real-time RT-PCR); type: cell-based; details: PDGF-AA 50 ng/ml, 2 days
Protocol: Total RNA from freshly isolated or cultured islets after indicated treatments were purified using the Absolutely RNA miniprep purification kit (Stratagene) according to the manufacturer's instructions. RNA concentration was measured with a RiboGreen RNA quantification assay (Invitrogen). One-step quantitative RT-PCR was performed and analysed using an ABI Prism 7300 detection system (Applied Biosystems) with TaqMan one-step RTPCR Master Mix Reagents and appropriate amounts (10-100 ng) of islet total RNA as the template. We calculated the ratio of mRNA for the gene of interest to the amount of internal control mRNA of peptidylprolyl isomerase A (cyclophilin A, PPIA), and then normalized the ratio for each gene to its median. For islet studies, human islets were isolated either at Pittsburgh University Medical Center or the University of Alabama, Birmingham. Eight independent human islet preparations from juvenile donors at the age of 8 months, 1.0, 1.5, 2, 3, 4, 5 and 6 years, and three adult islet preparations from donors at the age of 39, 48 and 56 years were used in this study. After isolation, fresh islets were hand-picked and transferred to RPMI-1640 medium supplemented with 0.5% FBS, 0.2% BSA and 2% penicillin/streptomycin for an overnight recovery before experiments. […] To detect in vitro human islet β-cell proliferation stimulated by PDGF-AA, human islets were exposed to 50 μM BrdU for 24 h. Afterwards, human islets were processed in a similar way as in mouse islet studies for immunostaining of insulin, glucagon, PDX1 and BrdU. β-Cell proliferation rate was determined by quantifying percentage of insulin+ cells with BrdU+. More than 50 islets per group were counted for determining cultured human islet β-cell proliferation rate.

[2] = tested on: human EZH2 locus; assay: EZH2 locus ChIP analysis with anti-E2F1 antibody in human juvenile islets; type: cell-based; details: juvenile human islets exposed to PDGF-AA
Protocol: ChIPs were performed using a chromatin immunoprecipitation kit from Millipore. Briefly, freshly isolated mouse pancreatic islets or cultured human islets after the indicated treatments were pooled, and fixed with 2% formaldehyde for cross-linking for 20 min at room temperature (25° C.). After washing, islets were dissolved in SDS lysis buffer containing a proteinase inhibitor cocktail followed by sonication to shear the chromatin. Precleared chromatin from 150 to 300 islets was used for each ChIP sample with incubation of 1 to 5 μg of the appropriate antibodies at 4° C. overnight. The antibodies used in the ChIP assays included mouse anti-E2F1 (Millipore), rabbit anti-E2F4 (Santa Cruz Biotechnologies), rabbit or mouse polyclonal IgG (Millipore). […] After measurement of DNA concentration by PicoGreen DNA assay (Invitrogen), equivalent amounts of chromatin DNA from every sample was quantified by real-time qPCR in ABI Prism 7300 detection system (Applied Biosystems). […] Afterwards, human islets were processed in a similar way as in mouse islet studies for immunostaining of insulin, glucagon, PDX1 and BrdU. β-Cell proliferation rate was determined by quantifying percentage of insulin+ cells with BrdU+. More than 50 islets per group were counted for determining cultured human islet β-cell proliferation rate.

[3] = tested on: INSULIN+ cells in human islet grafts; assay: Human β-cell replication in islets transplanted into NOD-scid mice with PDGF-AA infusion; type: in vivo
From the text: Exposure of islets from young human donors to purified PDGF-AA stimulates ERK-dependent signaling pathways culminating in enhanced β-cell proliferation. However, these studies have not yet shown if PDGF-AA activation is sufficient to drive regeneration of functional β-cell mass in vivo. To assess this question, equivalent numbers of size-matched islets from young (ages 1-10 years) and control adult donors (age >20 years) were transplanted into NOD-scid mice. […] PDGF-AA infusion stimulated β-cell expansion in human islet grafts. A 200% increase of INSULIN^+ cell BrdU incorporation in grafts from young human donors (n=3 independent juvenile donors, three week PDGF-AA infusion; FIG. 26B-C). By contrast, we observed no increase of BrdU incorporation by INSULIN^+ cells in adult islet grafts (n=2), as expected based on our prior observation that adult β-cells no longer express Pdgf receptor α or Pdgf receptor β. Promoting the expression of Pdgf receptor on adult islet β-cells, e.g. by promoting Wnt signaling and/or preventing DNA methylatransferase activity, will render these adult islet β-cells sensitive to PGF-AA infusion.

[4] = Serum PDGF-AA by ELISA in NOD-scid mice with osmotic pump; type: in vivo, mouse; details: control NOD-scid mice, subcutaneous osmotic pump primed with 4 μg PDGF-AA
From the text: Exposure of islets from young human donors to purified PDGF-AA stimulates ERK-dependent signaling pathways culminating in enhanced β-cell proliferation. However, these studies have not yet shown if PDGF-AA activation is sufficient to drive regeneration of functional β-cell mass in vivo. To assess this question, equivalent numbers of size-matched islets from young (ages 1-10 years) and control adult donors (age >20 years) were transplanted into NOD-scid mice.

[5] = grafts from young human donors, three week PDGF-AA infusion

PDGF-AA: recombinant human PDGF-AA, a homodimer of PDGF alpha polypeptides
EZH2 mRNA levels ([1]; adult human islets): not induced | EZH2 mRNA levels ([1]; juvenile human islets): increased | association of E2F1 with the human EZH2 locus (ChIP) [2]: stimulated association of E2F1 | BrdU incorporation by INSULIN+ cells ([3]; adult human islet grafts, PDGF-AA infusion): no increase | INSULIN+ cell BrdU incorporation (in words) [3, 5]: Increase | increase of INSULIN+ cell BrdU incorporation [3, 5]: 200% | serum PDGF-AA levels [4]: Increased
